The term IC50 denotes the concentration that inhibits the measured activity by half. A high value points to a need for much substance.

Consider 13 molecules from patent publication US10676476B2, “Small-molecule HSP90 inhibitors” (Sloan-Kettering Institute for Cancer Research, priority 2005, dated 2020).

Data set [1] deals with SKBr3 breast cancer cells. Description: Growth inhibition, sulforhodamine B assay. It is filed as cell-based, human. The following applies: for IC50: growth inhibition, 72 h, average of 3 measurements. The procedure:
Cell Culture. The human breast cancer cell lines SKBr3 and MDA-MB-468 were a gift from Dr. Neal Rosen (MSKCC). Cells were maintained in 1:1 mixture of DME:F12 supplemented with 2 mM glutamine, 50 units/mL penicillin, 50 […] and 10% heat inactivated fetal bovine serum (Gemini Bioproducts#100-10b) and incubated at 37° C., 5% CO2. Growth assays. Growth inhibition studies were performed using the sulforhodamine B assay as previously described.^29 In summary, experimental cultures were plated in microtiter plates (Nunc#167008). One column of wells was left without cells to serve as the blank control. Cells were allowed to attach overnight. The following day, growth medium having either drug or DMSO at twice the desired initial concentration was added to the plate in triplicate and was serially diluted at a 1:1 ratio in the microtiter plate. After 72 h of growth, the cell number in treated versus control wells was estimated after treatment with 50% trichloroacetic acid and staining with 0.4% sulforhodamine B in 1% acetic acid. […] Normal human renal proximal tubular epithelial (RPTEC) cells were purchased pre-seeded in 96-well plates (Clonetics, CC-3190). Upon receipt, cells were placed in a humidified incubator at 37° C., 5% CO2 and allowed to equilibrate for 3 h. Media was removed by suction and replaced with fresh media provided by the manufacturer. Cells were then treated with either drugs or DMSO for 72 h and the IC50 values were determined as described above.
On the technique in general: In SRB staining, fixed cells bind dye roughly in proportion to their protein.

The test system of data set [2] is Hsp90 complexes found in normal heart tissue. Description: Hsp90 competition assay, heart homogenate. It is filed as binding, mouse. The following applies: ratio of EC50 values.
Experimental: (§3) When using cell lysates instead of recombinant protein, the assay measures binding to average. Hsp90 population found in cell specific complexes.
(§4) Hsp90 Competition Assay.Fluorescence polarization measurements were performed on an ANALYST® AD instrument (Molecular Devices, Sunnyvale, Calif.). […] The assay buffer (HFB) contained 20 mM HEPES (K) pH 7.3, 50 mM KCl, 5 mM MgCl2, 20 mM Na2MoO4, 0.01% NP40. Before each use, 0.1 mg/mL bovine gamma globulin (BGG) (Panvera Corporation, Madison, Wis.) and 2 mM DTT (Fisher Biotech, Fair Lawn, N.J.) were freshly added. […] Cell lysates were prepared rupturing cellular membranes by freezing at −70° C. and dissolving the cellular extract in HFB with added protease and phosphotase inhibitors. Organs were harvested from a healthy mouse and homogenized in HFB. Saturation curves were recorded in which GM-BODIPY (5 nM) was treated with increasing amounts of cellular lysates.
The subject of data set [3] is Hsp90 complexes found in normal lung tissue. As to the kind of experiment: Hsp90 competition assay, lung homogenate. The following applies: ratio of EC50 values. It is filed as binding, mouse.
Experimental: as §3, §4
The test system of a further data set is Her2 in SKBr3 cells. Description: Her2 assay (microtiter immunoassay of Her2 degradation). It is filed as cell-based, human. The following applies: for IC50: Her2 degradation, SKBr3 cells, 24 h, average of 3 measurements. Here is the method: Her2 Assay. SKBr3 cells were plated in black, clear-bottom microtiter plates (Corning#3603) at 3,000 cells/well in growth medium (100 μl) and allowed to attach for 24 h at 37° C. and 5% CO2. Growth medium (100 μl) with drug or vehicle (DMSO) was carefully added to the wells, and the plates were placed at 37° C. and 5% CO2. Following 24 h incubation with drugs, wells were washed with ice-cold Tris buffer saline (TBS) containing 0.1% Tween 20 (TBST) (200 μl). A house vacuum source attached to an eight-channel aspirator was used to remove the liquid from the plates. Further, methanol (100 μl at −20° C.) was added to each well, and the plate was placed at 4° C. for 10 min. Methanol was removed by washing with TBST (2×200 μl). After further incubation at RT for 2 h with SUPERBLOCK® R (Pierce 37535) (200 μl), anti-Her-2 (c-erbB-2) antibody (Zymed Laboratories#28-004) (100 μl, 1:200 in SUPERBLOCK® R) was placed in each well. The plate was incubated overnight at 4° C. For control wells, 1:200 dilution of a normal rabbit IgG (Santa Cruz#SC-2027) in SUPERBLOCK® R was used. Each well was washed with TBST (2×200 μl) and incubated at RT for 2 h with an anti-rabbit HRP-linked antibody (Sigma, A-0545) (100 μl, 1:2000 in SuperBlockR). Unreacted antibody was removed by washing with TBST (3×200 μl), and the ECL™ Western blotting reagent (Amersham #RPN2106) (100 μL) was added. The plate was immediately read in an Analyst AD plate reader (Molecular Devices). Each well was scanned for 0.1 s. Readings from wells containing only control IgG and the corresponding HRP-linked secondary antibody were set as background and deducted from all measured values.

In the next data set the test system is MDA-MB-468 cells. As to the kind of experiment: Anti-mitotic assay (Tg-3 microtiter immunoassay). It is filed as cell-based, human. The following applies: MDA-MB-468 (Rb-defective) cells, 24 h. Here is the method: Anti-Mitotic Assay. Black, clear-bottom microtiter 96-well plates (Corning Costar#3603) were used to accommodate experimental cultures. MDA-MB-468 cells were seeded in each well at 8,000 cells per well in growth medium (100 μL), and allowed to attach overnight at 37° C. and 5% CO2. Growth medium (100 μL) with drug or vehicle (DMSO) was gently added to the wells, and the plates were incubated at 37° C. and 5% CO2 for 24 h. Wells were washed with ice-cold TBST (2×200 μL). A house vacuum source attached to an eight-channel aspirator was used to remove the liquid from the 96-well plates. Ice-cold methanol (100 μL) was added to each well, and the plate was placed at 4° C. for 5 min. Methanol was removed by suction and plates were washed with ice-cold TBST (2×200 μL). Plates were further incubated with SuperBlock® blocking buffer (Pierce #37535) (200 μL) for 2 h at RT. The Tg-3 antibody (gift of Dr. Davies, Albert Einstein College of Medicine) diluted 1:200 in SuperBlock® was placed in each well (100 μL) except the control column that was treated with control antibody (Mouse IgM, NeoMarkers, NC-1030-P). After 72 h, wells were washed with ice-cold TBST (2×200 μL). […] Un-reacted antibody was removed by washing the plates with ice-cold TBST (3×200 μL) for 5 min on a shaker. The ECL™ Western Blotting Detection Reagents 1 and 2 in 1:1 mix (100 μL) was placed in each well and the plates were read immediately in an Analyst AD plate reader (Molecular Devices). Luminescence readings were imported into SOFTmax PROR 4.3.1. Anti-mitotic activity was defined as a concentration dependent increase in luminescence readings in compound-treated wells as compared to DMSO only treated wells.

The nature of data set [4]: Tumor and plasma concentration in MDA-MB-468 xenografted mice. It is filed as in vivo. The following applies: 24 hours after intraperitoneal injection. The procedure:
(§1) Mice xenografted with MDA-MB-468 human breast cancer tumors were treated by intraperitoneal injection with Compound 5 at a dosage levels of 25, 50, 75, 100 and 150 mg/kg. The concentration of Compound 5 in the tumor 24 hours after administration was determined. […] Compound 5 was further tested for its effects on the pharmacodynamic marker Raf-1 kinase.

The next data set concerns Raf-1 kinase. As to the kind of experiment: Pharmacodynamic marker in MDA-MB-468 xenograft tumors. It is filed as in vivo, mice. Here is the method:
as §1
Hsp90 stabilizes this kinase and maintains it in ready-to-be-activated conformation. Inhibition of Hsp90 leads to disruption of the complex and further ubiquitinylation and degradation of Raf-1 by the proteasome. Thus, Raf-1 degradation in tumors is a functional read-out of Hsp90 inhibition.

Another data set relates to cancer cells. As to the kind of experiment: Potency against cancer cells. It is filed as cell-based. Here is the method: (§2) Growth over 96 h was assessed.
Another data set concerns H69AR. As to the kind of experiment: Growth over 96 h, resistant SCLC line. It is filed as cell-based. The following applies: SCLC cell line resistant to adriamycin. The procedure:
as §2

Data set [5] in a line: Blood brain barrier penetration.
The test system of a further data set is SKI-Chen. Description: Growth over 96 h, resistant SCLC line. It is filed as cell-based, human. The following applies: line from a patient who failed every conventional therapy. Here is the method: as §2
A further data set deals with small cell lung tumors. As to the kind of experiment: Pharmacodynamics and anti-cancer activity in a model of small cell lung cancer. It is filed as in vivo.
The subject of data set [6] is SCLC cells highly resistant to conventional chemotherapy. Description: Growth inhibition and cell death, FIG. 8. It is filed as cell-based. Conditions: FIG. 8, growth over 96 h. Here is the method: as §2
Data set [7] relates to MRC5 normal lung fibroblasts. Description: Selectivity SKBr3 versus MRC5 normal cells. It is filed as cell-based.

Turning to “9-(Pent-4-ynyl)-8-(2,4,5-trichloro-phenylsulfanyl)adenine [Example 2]”, the IC50 was 48400 ± 2500 nM in [1], 1800 ± 200 nM in data set [1] (listed as Comp 2), 58000 ± 1400 nM in the data set on Her2 in SKBr3 cells and 1300 ± 400 nM with Her2 in SKBr3 cells (listed as Comp 2). Besides, the “Inhibition of growth in SKBr3 cells” value in data set [1] (result in words) was “inhibition of growth”. The Heart/SKBr3 in data set [2] was found to be 590. The Lung/SKBr3 in [3] is listed as 2400. Moreover, in the data set on Her2 in SKBr3 cells (result in words), the “Her2 degradation in SKBr3 cells” value is “induced Her2 degradation”. In addition, the Anti-mitotic result is “No” with MDA-MB-468 cells; “exhibited anti-mitotic activity and Yes” in the data set on MDA-MB-468 cells (listed as Comp 2).
`COc1cc(Sc2nc3c(N)ncnc3n2CCOC(C)C)c(Cl)cc1Cl` [Example 3, 9-(2-Isopropoxy-ethyl)-8-(2,4-dichloro-5-methoxy-benzenesulfanyl)adenine]: in the data set on MDA-MB-468 cells, the Anti-mitotic entry was “No”.
As to `Nc1ncnc2nc(Sc3cc(Cl)c(Cl)cc3Cl)[nH]c12` [Example 4, 8-(2,4,5-Trichloro-phenylsulfanyl)adenine], the Anti-mitotic entry in the data set with MDA-MB-468 cells is recorded as “Yes”.
For the molecule `CC(C)NCCCn1c(Sc2cc3c(cc2Br)OCO3)nc2c(N)ncnc21` [Example 5, 8-(6-Bromo-benzo[1,3]dioxol-5-ylsulfanyl)-9-(3-isopropylamino-propyl)adenine], in data set [4], the Concentration in plasma result was “could not be detected”. For the same molecule, the “Raf-1 protein levels in tumor” value with Raf-1 kinase (all dosage levels) was “substantial decrease in Raf-1 levels”. Further, in the data set on Raf-1 kinase (protein unaffected by Hsp90 inhibitors), the “Expression of PD kinase” value is on record as “no change in expression”. Also, in the data set on MDA-MB-468 cells, the Anti-mitotic result is reported as “Yes”.
Turning to `C#CCCCn1c(Cc2cc3c(cc2Br)OCO3)nc2c(N)nc(F)nc21` [Example 6, 2-Fluoro-8-(6-bromo-benzo[1,3]dioxol-5-ylmethyl)-9-(pent-4-ynyl)adenine], the Anti-mitotic result in the data set on MDA-MB-468 cells is “Yes”.
In the case of `C#CCCCn1c(Cc2cc3c(cc2Cl)OCO3)nc2c(N)nc(F)nc21` [Example 7, 2-Fluoro-8-(6-chloro-benzo[1,3]dioxol-5-ylmethyl)-9-(pent-4-ynyl)adenine], the Anti-mitotic result with MDA-MB-468 cells is “Yes”.
Take `CC(C)NCCCn1c(Cc2cc3c(cc2I)OCO3)nc2c(N)nc(F)nc21` [Example 8, 2-Fluoro-8-(6-iodo-benzo[1,3]dioxol-5-ylmethyl)-9-(3-isopropylamino-propyl) adenine]: the “Potency against cancer cells” value in the data set with cancer cells was “low nanomolar potency”. Further, the Anti-mitotic result in the data set on MDA-MB-468 cells is on record as “Yes”.
On to `CC(C)NCCCn1c(Sc2cc3c(cc2I)OCO3)nc2c(N)ncnc21` [Example 9, 8-(6-Iodo-benzo[1,3]dioxol-5-ylsulfanyl)-9-(3-isopropylamino-propyl)adenine], for which the “Potency against cancer cells” value in the data set with cancer cells is given as “low nanomolar potency”. Besides, the half-inhibitory concentration (IC50) in [1] (Homo sapiens, SK-BR-3) worked out at 90 ± 2 nM. Further, the “Activity in H69AR” value with H69AR is recorded as “retains its activity”. For the same molecule, in data set [2], the Heart/SKBr3 was found to be 140. In [3], the Lung/SKBr3 was determined as 48. In addition, the “Blood brain barrier penetration” value in [5] is “ability to cross the blood brain barrier”. In addition, in the data set with Her2 in SKBr3 cells (Homo sapiens, SK-BR-3), it took 100 ± 10 nM to reach half-maximal inhibition (IC50). Besides, in the data set on MDA-MB-468 cells, the Anti-mitotic entry is “Yes”. In addition, in the data set on SKI-Chen, the “Activity in SKI-Chen” value was “retains its activity”. The Tumor growth inhibition entry in the data set on small cell lung tumors (comparable to 17AAG) was “efficiently inhibited the growth of this tumor”. In the data set on small cell lung tumors (in vivo), the “Apoptosis of the tumor (PARP cleavage)” value is “induces significant apoptosis of the tumor”, the “Duration of downregulation of Hsp90 client proteins in tumor” value was “more than 36 h” and the “Toxicity to the host” value is on record as “without toxicity to the host”. The “Raf-1 and Akt in tumor” value in the data set on small cell lung tumors (one administered dose) is “efficiently degraded or inactivated”. Besides, the “Effective concentration lower than PU24FC1” value in [6] is listed as “about 20 times”.
For the molecule `C#CCCCn1c(Sc2cc3c(cc2I)OCO3)nc2c(N)ncnc21` [Example 10, 8-(6-Iodo-benzo[1,3]dioxol-5-ylsulfanyl)-9-(pent-4-ynyl)adenine], the “Selectivity between SKBr3 cells and MRC5 normal lung fibroblasts” value in data set [7] is given as “Selectivity was also observed”. Further, in [2], the Heart/SKBr3 stood at 370.
Consider `C#CCCCn1c(Cc2cc3c(cc2I)OCO3)nc2c(N)nc(F)nc21` [Example 11, 2-Fluoro-8-(6-iodo-benzo[1,3]dioxol-5-ylmethyl)-9-(pent-4-ynyl)adenine], for which the Anti-mitotic result in the data set with MDA-MB-468 cells is “Yes”.
Take `C#CCCCn1c(Cc2cc(OC)c(OC)cc2I)nc2c(N)nc(F)nc21` [Example 12, 2-Fluoro-8-(2-iodo-4,5-dimethoxy-benzyl)-9-(pent-4-ynyl)adenine]: in the data set on MDA-MB-468 cells, the Anti-mitotic result is given as “No”.
As for `C#CCCCn1c(Cc2cc(OC)c(OC)cc2Br)nc2c(N)nc(F)nc21` [Example 13, 2-Fluoro-8-(2-bromo-4,5-dimethoxy-benzyl)-9-(pent-4-ynyl)adenine], in the data set with MDA-MB-468 cells, the Anti-mitotic result is given as “No”.
As for `C#CCCCn1c(Cc2cc(OC)c(OC)cc2Cl)nc2c(N)nc(F)nc21` [Example 14, 2-Fluoro-8-(2-chloro-4,5-dimethoxy-benzyl)-9-(pent-4-ynyl)adenine], the Anti-mitotic result with MDA-MB-468 cells was “No”.
